The results in this text go back to ChEMBL document CHEMBL3046305, “Insecticidal and repellent action of allyl esters against Acyrthosiphon pisum (Hemiptera: Aphididae) and Tribolium castaneum (Coleoptera: Tenebrionidae)” (2013).

Test [1] deals with Tribolium castaneum. The experiment in a line: Repellent effect in Tribolium castaneum (red flour beetle) at 10 ug/cm'2 measured after 4 hr. The format is functional.
Test [2] relates to Acyrthosiphon pisum. Put plainly: Repellent effect in Acyrthosiphon pisum (pea aphid) at 10 ug/cm'2. It counts as functional.
Test [3] deals with Tribolium castaneum. The experiment in a line: Repellent effect in Tribolium castaneum (red flour beetle) at 10 ug/cm'2 measured after 24 hr. The format is functional.
Test [4] concerns Acyrthosiphon pisum. Put plainly: Insecticidal activity against Acyrthosiphon pisum (pea aphid) treated artificial diet with compound assessed as mortality at 0.1 mg/ml after 1 day. The format is functional, organism-based.
In test [5] the test system is Tribolium castaneum. The experiment in a line: Insecticidal activity against Tribolium castaneum (red flour beetle) assessed as mortality treated topically measured per insect after 24 hr. The format is functional.
For test [6], the system named is Acyrthosiphon pisum. The experiment in a line: Repellent effect in Acyrthosiphon pisum (pea aphid) at 0.1 ug/cm'2. The format is functional, organism-based.
Test [7] concerns Tribolium castaneum. Put plainly: Insecticidal activity against Tribolium castaneum (red flour beetle) Herbst assessed as mortality treated topically at 0.24 mg/insect measured per insect after 24 hr. It counts as functional.
Test [8] has as its system Acyrthosiphon pisum. Put plainly: Insecticidal activity against Acyrthosiphon pisum (pea aphid) assessed as mortality treated topically at 30 ug/insect measured after 24 hr. It counts as functional.
The subject of test [9] is Acyrthosiphon pisum. The experiment in a line: Insecticidal activity against Acyrthosiphon pisum (pea aphid) treated artificial diet with compound assessed as mortality at 0.7 mg/ml after 3 days. The format is functional. As to conditions: 72 h.
Test [10] deals with Acyrthosiphon pisum. The experiment in a line: Insecticidal activity against Acyrthosiphon pisum (pea aphid) treated artificial diet with compound assessed as mortality at 0.7 mg/ml after 1 day. Conditions: 24 h. It counts as functional.
For test [11], the system named is Acyrthosiphon pisum. Put plainly: Insecticidal activity against Acyrthosiphon pisum (pea aphid) treated artificial diet with compound for 3 days assessed as mortality. Conditions: for LC50: Acyrthosiphon pisum, 72 h. It counts as functional.
The subject of test [12] is Tribolium castaneum. Put plainly: Insecticidal activity against Tribolium castaneum (red flour beetle) assessed as mortality at 0.25 mg/insect. The format is functional.
Test [13] concerns Tribolium castaneum. The experiment in a line: Repellent effect in Tribolium castaneum (red flour beetle) at 0.1 ug/cm'2 measured after 8 hr. It counts as functional, organism-based.

Molecules are shown by their SMILES. Converted amounts (≈) assume the structure as drawn. The source made the active and inactive calls. The calls are words filed in the database; no cut-off is given here.

Regarding `CCN(CC)C(=O)c1cccc(C)c1` [DIETHYLTOLUAMIDE], the Repellency with Tribolium castaneum [1] turned out to be 60%; in the test with Acyrthosiphon pisum [2] it was 50%; with Tribolium castaneum [3] it was 84%.

As to `C=CCOC(=O)CCCCCCC` [ALLYL OCTANOATE], the mortality result with Acyrthosiphon pisum [4] and with Acyrthosiphon pisum [8] was “inactive” in each case. Also, the LC50 in the test with Tribolium castaneum [5] is 0.1 mg. Further, in the test on Tribolium castaneum [5], the LC90 worked out at 0.16 mg. In addition, the result in the test on Acyrthosiphon pisum [6] was inactive. Moreover, the mortality in the test on Tribolium castaneum [7] was 45%.

Regarding `C=CCOC(=O)c1ccco1` [ALLYL 2-FUROATE], the mortality entry in the test on Acyrthosiphon pisum [4] and in the test on Acyrthosiphon pisum [8] was “inactive” each time. The figures for the LC50 in the test on Tribolium castaneum [5] and with Acyrthosiphon pisum [11] were 0.2 mg and 210 µg/mL (≈ 1380 µM), respectively. For the same compound, the LC90 with Tribolium castaneum [5] came to 0.46 mg; with Acyrthosiphon pisum [11], 2.9 mg/mL (≈ 19100 µM). The mortality at 700 µg/mL in the test on Acyrthosiphon pisum [9] worked out at 68%; in the test on Acyrthosiphon pisum [10], 52%. Further, the result with Acyrthosiphon pisum [6] was inactive. Also, the mortality with Tribolium castaneum [7] was 45%.

On to `C=CCOC(=O)CCCCCC` [ALLYL HEPTANOATE], for which the mortality entry with Acyrthosiphon pisum [4] and in the test with Acyrthosiphon pisum [8] was “inactive” in each case. The LC90 in the test with Tribolium castaneum [5] was 0.32 mg; with Acyrthosiphon pisum [11] it was 1.16 mg/mL (≈ 6810 µM). Also, the mortality at 700 µg/mL with Acyrthosiphon pisum [9] was determined as 72%; in the test on Acyrthosiphon pisum [10], 53%. The LT50 in the test with Tribolium castaneum [12] is less than 2 h. Besides, in the test on Acyrthosiphon pisum [6], the result was inactive. Moreover, the mortality in the test with Tribolium castaneum [7] is given as 45%.

On to `C=CCOC(=O)CCCCC` [ALLYL HEXANOATE], for which the mortality entry with Acyrthosiphon pisum [4] and in the test on Acyrthosiphon pisum [8] was “inactive” in each case. The outcome in the test on Tribolium castaneum [1] and with Acyrthosiphon pisum [6] was inactive. Moreover, the LC90 in the test with Tribolium castaneum [5] worked out at 0.3 mg. Besides, the mortality in the test on Tribolium castaneum [7] was found to be 45%.

`C=CCOC(=O)/C=C/c1ccccc1` [ALLYL CINNAMATE]: in the test with Acyrthosiphon pisum [4], the mortality entry was “inactive”. In addition, the Repellency is reported as 80% with Tribolium castaneum [1] and 34% in the test on Acyrthosiphon pisum [2]. Besides, the LC50 was determined as 0.2 mg in the test on Tribolium castaneum [5] and 30 µg/mL (≈ 159 µM) in the test on Acyrthosiphon pisum [11]. In addition, the values for the LC90 in the test on Tribolium castaneum [5] and with Acyrthosiphon pisum [11] were 0.28 mg and 0.18 mg/mL (≈ 956 µM), respectively. The mortality at 700 µg/mL in the test on Acyrthosiphon pisum [9] stood at 100%; with Acyrthosiphon pisum [10] it was 86%. Besides, the LT50 in the test on Tribolium castaneum [12] was less than 2 h. Moreover, the mortality with Tribolium castaneum [7] came out at 45%; in the test with Acyrthosiphon pisum [8], 75%. The outcome in the test with Tribolium castaneum [13] was Active.
